{"source": "PubChem BioAssay (NCI)", "experiment_in_all_cases": "DTP human tumour cell line panel, 48 h", "key": {"[1]": {"test_system": "IGROV1 ovarian"}, "[2]": {"test_system": "U251 CNS"}, "[3]": {"test_system": "MALME-3M melanoma"}, "[4]": {"test_system": "SF-268 CNS"}, "[5]": {"test_system": "SN12C renal"}, "[6]": {"test_system": "HCC-2998 colon"}, "[7]": {"test_system": "TK-10 renal"}, "[8]": {"test_system": "UO-31 renal"}, "[9]": {"test_system": "MDA-MB-435"}, "[10]": {"test_system": "RPMI-8226 leukemia"}, "[11]": {"test_system": "HCT-15 colon"}, "[12]": {"test_system": "SF-539 CNS"}, "[13]": {"test_system": "PC-3 prostate"}, "[14]": {"test_system": "BT-549 breast"}, "[15]": {"test_system": "SK-MEL-2 melanoma"}, "[16]": {"test_system": "MDA-MB-231 breast"}, "[17]": {"test_system": "DU-145 prostate"}, "[18]": {"test_system": "NCI/ADR-RES ovarian"}, "[19]": {"test_system": "SW-620 colon"}, "[20]": {"test_system": "HOP-92 NSCLC"}, "[21]": {"test_system": "HT29 colon"}, "[22]": {"test_system": "NCI-H522 lung"}, "[23]": {"test_system": "MCF7 breast"}, "[24]": {"test_system": "EKVX NSCLC"}, "[25]": {"test_system": "786-0 renal"}, "[26]": {"test_system": "A498 renal"}, "[27]": {"test_system": "OVCAR-4 ovarian"}, "[28]": {"test_system": "NCI-H226 lung"}, "[29]": {"test_system": "HOP-62 NSCLC"}, "[30]": {"test_system": "UACC-62 melanoma"}, "[31]": {"test_system": "RXF 393 renal"}, "[32]": {"test_system": "KM12 colon"}, "[33]": {"test_system": "SK-MEL-5 melanoma"}, "[34]": {"test_system": "SNB-19 CNS"}, "[35]": {"test_system": "A549 NSCLC"}, "[36]": {"test_system": "CCRF-CEM leukemia"}, "[37]": {"test_system": "HCT-116 colon"}, "[38]": {"test_system": "SK-OV-3 ovarian"}, "[39]": {"test_system": "CAKI-1 renal"}, "[40]": {"test_system": "NCI-H460 lung"}, "[41]": {"test_system": "SK-MEL-28 melanoma"}, "[42]": {"test_system": "UACC-257 melanoma"}, "[43]": {"test_system": "NCI-H23 lung"}, "[44]": {"test_system": "ACHN renal"}, "[45]": {"test_system": "OVCAR-8 ovarian"}, "[46]": {"test_system": "OVCAR-3 ovarian"}, "[47]": {"test_system": "SF-295 CNS"}, "[48]": {"test_system": "SNB-75 CNS"}, "[49]": {"test_system": "K-562 leukemia"}, "[50]": {"test_system": "M14 melanoma"}, "[51]": {"test_system": "HL-60(TB) leukemia"}, "[52]": {"test_system": "OVCAR-5 ovarian"}}, "note": "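Dose response: 5 concentrations. Exposure: 48 h. Format: 96-well plates. Endpoint: linear interpolation; highest concentration if not reached. Here, GI50 denotes the concentration required for 50% inhibition of growth. TGI: concentration producing complete growth inhibition.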"}
{"compound": "c1ccc2c(-c3nc(-c4c[nH]c5ccncc45)cs3)c[nH]c2c1", "values": [{"measurement": "GI50", "setting": "[1]", "value": 1.33, "unit": "µM"}, {"measurement": "TGI", "setting": "[1]", "value": 3.83, "unit": "µM"}, {"measurement": "GI50", "setting": "[2]", "value": 1.93, "unit": "µM"}, {"measurement": "TGI", "setting": "[2]", "value": 3.58, "unit": "µM"}, {"measurement": "GI50", "setting": "[3]", "value": 1.65, "unit": "µM"}, {"measurement": "TGI", "setting": "[3]", "value": 3.13, "unit": "µM"}, {"measurement": "GI50", "setting": "[4]", "value": 2.51, "unit": "µM"}, {"measurement": "TGI", "setting": "[4]", "value": 7.96, "unit": "µM"}, {"measurement": "GI50", "setting": "[5]", "value": 1.67, "unit": "µM"}, {"measurement": "TGI", "setting": "[5]", "value": 3.35, "unit": "µM"}, {"measurement": "GI50", "setting": "[6]", "value": 1.87, "unit": "µM"}, {"measurement": "TGI", "setting": "[6]", "value": 3.42, "unit": "µM"}, {"measurement": "GI50", "setting": "[7]", "value": 2.76, "unit": "µM"}, {"measurement": "TGI", "setting": "[7]", "value": 4.74, "unit": "µM"}, {"measurement": "GI50", "setting": "[8]", "value": 1.21, "unit": "µM"}, {"measurement": "TGI", "setting": "[8]", "value": 2.62, "unit": "µM"}, {"measurement": "GI50", "setting": "[9]", "value": 1.75, "unit": "µM"}, {"measurement": "TGI", "setting": "[9]", "value": 3.23, "unit": "µM"}, {"measurement": "GI50", "setting": "[10]", "value": 1.25, "unit": "µM"}, {"measurement": "TGI", "setting": "[10]", "value": 3.04, "unit": "µM"}, {"measurement": "GI50", "setting": "[11]", "value": 1.56, "unit": "µM"}, {"measurement": "TGI", "setting": "[11]", "value": 3.4, "unit": "µM"}, {"measurement": "GI50", "setting": "[12]", "value": 1.79, "unit": "µM"}, {"measurement": "TGI", "setting": "[12]", "value": 3.29, "unit": "µM"}, {"measurement": "GI50", "setting": "[13]", "value": 1.84, "unit": "µM"}, {"measurement": "TGI", "setting": "[13]", "value": 6.25, "unit": "µM"}, {"measurement": "GI50", "setting": "[14]", "value": 8.82, "unit": "µM"}, {"measurement": "TGI", "setting": "[14]", "value": 21.3, "unit": "µM"}, {"measurement": "GI50", "setting": "[15]", "value": 2.09, "unit": "µM"}, {"measurement": "TGI", "setting": "[15]", "value": 3.95, "unit": "µM"}, {"measurement": "GI50", "setting": "[16]", "value": 1.06, "unit": "µM"}, {"measurement": "TGI", "setting": "[16]", "value": 2.53, "unit": "µM"}, {"measurement": "GI50", "setting": "[17]", "value": 3.36, "unit": "µM"}, {"measurement": "TGI", "setting": "[17]", "value": 11.3, "unit": "µM"}, {"measurement": "GI50", "setting": "[18]", "value": 3.2, "unit": "µM"}, {"measurement": "TGI", "setting": "[18]", "value": 15.5, "unit": "µM"}, {"measurement": "GI50", "setting": "[19]", "value": 1.73, "unit": "µM"}, {"measurement": "TGI", "setting": "[19]", "value": 3.54, "unit": "µM"}, {"measurement": "GI50", "setting": "[20]", "value": 1.44, "unit": "µM"}, {"measurement": "TGI", "setting": "[20]", "value": 3.28, "unit": "µM"}, {"measurement": "GI50", "setting": "[21]", "value": 2.07, "unit": "µM"}, {"measurement": "TGI", "setting": "[21]", "value": 4.2, "unit": "µM"}, {"measurement": "GI50", "setting": "[22]", "value": 1.92, "unit": "µM"}, {"measurement": "TGI", "setting": "[22]", "value": 3.92, "unit": "µM"}, {"measurement": "GI50", "setting": "[23]", "value": 1.43, "unit": "µM"}, {"measurement": "TGI", "setting": "[23]", "value": 3.16, "unit": "µM"}, {"measurement": "GI50", "setting": "[24]", "value": 1.78, "unit": "µM"}, {"measurement": "TGI", "setting": "[24]", "value": 4.61, "unit": "µM"}, {"measurement": "GI50", "setting": "[25]", "value": 1.89, "unit": "µM"}, {"measurement": "TGI", "setting": "[25]", "value": 3.44, "unit": "µM"}, {"measurement": "GI50", "setting": "[26]", "value": 10, "unit": "µM"}, {"measurement": "TGI", "setting": "[26]", "value": 22.1, "unit": "µM"}, {"measurement": "GI50", "setting": "[27]", "value": 2.96, "unit": "µM"}, {"measurement": "TGI", "setting": "[27]", "value": 11.7, "unit": "µM"}, {"measurement": "GI50", "setting": "[28]", "value": 3.24, "unit": "µM"}, {"measurement": "TGI", "setting": "[28]", "value": 17.7, "unit": "µM"}, {"measurement": "GI50", "setting": "[29]", "value": 1.71, "unit": "µM"}, {"measurement": "TGI", "setting": "[29]", "value": 4.27, "unit": "µM"}, {"measurement": "GI50", "setting": "[30]", "value": 1.67, "unit": "µM"}, {"measurement": "TGI", "setting": "[30]", "value": 3.33, "unit": "µM"}, {"measurement": "GI50", "setting": "[31]", "value": 1.55, "unit": "µM"}, {"measurement": "TGI", "setting": "[31]", "value": 3.03, "unit": "µM"}, {"measurement": "GI50", "setting": "[32]", "value": 2.02, "unit": "µM"}, {"measurement": "TGI", "setting": "[32]", "value": 4.4, "unit": "µM"}, {"measurement": "GI50", "setting": "[33]", "value": 1.6, "unit": "µM"}, {"measurement": "TGI", "setting": "[33]", "value": 2.99, "unit": "µM"}, {"measurement": "GI50", "setting": "[34]", "value": 2.18, "unit": "µM"}, {"measurement": "TGI", "setting": "[34]", "value": 5.12, "unit": "µM"}, {"measurement": "GI50", "setting": "[35]", "value": 2.45, "unit": "µM"}, {"measurement": "TGI", "setting": "[35]", "value": 6.21, "unit": "µM"}, {"measurement": "GI50", "setting": "[36]", "value": 1.44, "unit": "µM"}, {"measurement": "TGI", "setting": "[36]", "value": 3.52, "unit": "µM"}, {"measurement": "GI50", "setting": "[37]", "value": 1.71, "unit": "µM"}, {"measurement": "TGI", "setting": "[37]", "value": 3.19, "unit": "µM"}, {"measurement": "GI50", "setting": "[38]", "value": 2.62, "unit": "µM"}, {"measurement": "TGI", "setting": "[38]", "value": 8.29, "unit": "µM"}, {"measurement": "GI50", "setting": "[39]", "value": 1.98, "unit": "µM"}, {"measurement": "TGI", "setting": "[39]", "value": 5.74, "unit": "µM"}, {"measurement": "GI50", "setting": "[40]", "value": 1.76, "unit": "µM"}, {"measurement": "TGI", "setting": "[40]", "value": 3.58, "unit": "µM"}, {"measurement": "GI50", "setting": "[41]", "value": 1.84, "unit": "µM"}, {"measurement": "TGI", "setting": "[41]", "value": 3.32, "unit": "µM"}, {"measurement": "GI50", "setting": "[42]", "value": 1.8, "unit": "µM"}, {"measurement": "TGI", "setting": "[42]", "value": 3.43, "unit": "µM"}, {"measurement": "GI50", "setting": "[43]", "value": 1.85, "unit": "µM"}, {"measurement": "TGI", "setting": "[43]", "value": 5, "unit": "µM"}, {"measurement": "GI50", "setting": "[44]", "value": 1.72, "unit": "µM"}, {"measurement": "TGI", "setting": "[44]", "value": 3.36, "unit": "µM"}, {"measurement": "GI50", "setting": "[45]", "value": 1.97, "unit": "µM"}, {"measurement": "TGI", "setting": "[45]", "value": 4.33, "unit": "µM"}, {"measurement": "GI50", "setting": "[46]", "value": 1.98, "unit": "µM"}, {"measurement": "TGI", "setting": "[46]", "value": 3.98, "unit": "µM"}, {"measurement": "GI50", "setting": "[47]", "value": 1.58, "unit": "µM"}, {"measurement": "TGI", "setting": "[47]", "value": 3.2, "unit": "µM"}, {"measurement": "GI50", "setting": "[48]", "value": 10.3, "unit": "µM"}, {"measurement": "TGI", "setting": "[48]", "value": 22.2, "unit": "µM"}, {"measurement": "GI50", "setting": "[49]", "value": 2.05, "unit": "µM"}, {"measurement": "TGI", "setting": "[49]", "value": 5.29, "unit": "µM"}, {"measurement": "GI50", "setting": "[50]", "value": 1.7, "unit": "µM"}, {"measurement": "TGI", "setting": "[50]", "value": 3.46, "unit": "µM"}, {"measurement": "GI50", "setting": "[51]", "value": 2.02, "unit": "µM"}, {"measurement": "TGI", "setting": "[51]", "value": 4.73, "unit": "µM"}, {"measurement": "GI50", "setting": "[52]", "value": 2.59, "unit": "µM"}, {"measurement": "TGI", "setting": "[52]", "value": 6.63, "unit": "µM"}]}
